Series [1] has as its system BT-474. The series is described as follows: Antiproliferative activity against human BT-474 cells assessed as inhibition of cell viability at 10 uM measured after 72 hrs by CellTiter 96 Aqueous One Solution Cell Proliferation Assay relative to control. The class given is functional.
The subject of series [2] is HEK293. The experiment in a line: Cytotoxicity against HEK293 cells assessed as reduction in cell viability at 10 uM measured after 72 hrs by CellTiter 96 Aqueous One Solution Cell Proliferation Assay. The class given is toxicity, cell-based. To be noted: human, hek293, 72 h.
Series [3] relates to JIMT-1. The series is described as follows: Antiproliferative activity against human JIMT-1 cells assessed as inhibition of cell viability at 10 uM measured after 72 hrs by CellTiter 96 Aqueous One Solution Cell Proliferation Assay. Type of series: functional, cell-based.
For series [4], the system named is BT-474. The experiment in a line: Antiproliferative activity against human BT-474 cells assessed as inhibition of cell viability at 10 uM measured after 72 hrs by CellTiter 96 Aqueous One Solution Cell Proliferation Assay. Type of series: functional, cell-based.
For series [5], the species on record is Homo sapiens. The experiment in a line: Inhibition of N-terminal HSP90 (unknown origin) at 10 uM by AlphaLISA assay. On the technique in general: Bead proximity is the source of the signal in Alpha formats.

The source made the active and inactive calls. The calls are words filed in the database; no cut-off is given here.

The inhibition is the relative decrease from the control value, in per cent.

`COc1c(C(=O)Nc2nn(CCC3CCN(C)CC3)c3ccccc23)ccc2c1C=CC(C)(C)O2`: in series [1], the inhibition at 10 µM is more than 50%.

As to `COCCn1cc(NC(=O)c2ccc3c(c2OC)C=CC(C)(C)O3)c2ccccc21`, in series [2], the Activity result is reported as “Toxic”. Moreover, the outcome in series [3] and in series [4] was Active.

As to `CC(C)c1cc(-c2n[nH]c(=O)n2-c2ccc3c(ccn3C)c2)c(O)cc1O`, the inhibition entry in series [5] was “Active”.

Source of the values: ChEMBL document CHEMBL5608181, “Discovery of indazole inhibitors for heat shock protein 90 as anti-cancer agents” (Eur J Med Chem, 2024).
